Experimental data reported in patent US20240075002A1, “CREATINE COMPOSITION AND METHODS OF USING SAME” (NanoChem Solutions, Inc, priority 2022, published 2024).

Assay: pH of the spray dried powder
Type: physicochemical
Description: In one exemplary embodiment, an aqueous solution of creatine sodium sulfate can be produced by dissolving about 72.96 grams of sodium hydrogen sulfate in about 811.86 grams of deionized water. The solution can be heated to about 145° F. and is maintained throughout the reaction. When the temperature of the sodium hydrogen sulfate solution reaches about 145° F., about 90.63 grams of creatine monohydrate can be added to the solution whereby the heat is maintained at about 145° F. and the mixture mixes with standard agitation for approximately 1 hour. After the hour, the solution is immediately piped to the spray dryer whereby it is spray dried into a powder with a total water of 3-7% by weight and with a water activity of less than 0.4. The pH of the spray dried powder is approximately 1.7. The mesh size of the spray-dried, stable, soluble sodium hydrogen sulfate powder is approximately 40-200 mesh, but can be adjusted depending on the requirements of the customer or desired end application.
In another exemplary embodiment, an aqueous solution of creatine potassium sulfate can be produced by dissolving about 109.53 grams of potassium hydrogen sulfate in about 806.68 grams of deionized water. The solution is can be heated to about 145° F. and is maintained throughout the reaction. […]

## CN(CC(=O)O)C(=N)N.O=S(=O)([O-])[O-].[K+].[K+] [creatine potassium sulfate]
  pH of the spray dried powder: approximately 1.7

## CN(CC(=O)O)C(=N)N.O=S(=O)([O-])[O-].[Na+].[Na+] [creatine sodium sulfate]
  pH of the spray dried powder: approximately 1.7
